Reference: PMC5298233, “Substrate-analogous inhibitors exert antimalarial action by targeting the Plasmodium lactate transporter PfFNT at nanomolar scale” (PLoS Pathogens, 2017)

Target: PfFNT G107S (Plasmodium falciparum, UniProt O77389, G107S)
Experiment: cell-based
Conditions: for IC50: read-out: IC50 (PfFNT G107S / yeast)

Compound | IC50 | relative efficiency in blocking PfFNT G107S (mutant versus wildtype) (compared with BH-296)
COc1ccc(C(=O)/C=C(\O)C(F)(F)C(F)(F)F)cc1 [BH-296] | 2.3 µM | –
CC(=O)C=C(O)C(F)(F)C(F)(F)F [Pharmacophore, 5,5,6,6,6-pentafluoro-4-hydroxyhex-3-en-2-one] | 8.1 µM | four times better relative efficiency than BH-296
COc1ccc2c(c1)OC(O)(C(F)(F)C(F)(F)F)CC2=O (stereo not shown) [MMV007839] | 21 µM | –
